Source: the supplement of paper PMC4862054

Columns and labels:
Conditions in all cases: incubation time: 72 h
Hs578T = assay: normalised response (% of control), CellTiter-Glo; higher = more viable cells (100 = DMSO, 0 = benzethonium chloride kill control)
Protocol: (§1)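 DSRT, 72 h incubation, CellTox Green / CellTiter-Glo readout. Signal is normalised to DMSO and benzethonium chloride controls. Value is the normalised response at dose 3.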

MCF-10A [1] = assay: as above
Protocol: as §1

CAL-148 [2] = assay: as above
Protocol: as §1

MDA-MB-231 [3] = assay: as above
Protocol: as §1

SK-BR-3 = assay: as above
Protocol: as §1

CAL-120 [4] = assay: as above
Protocol: as §1

HCC1143 [5] = assay: as above
Protocol: as §1

MFM-223 [6] = assay: as above
Protocol: as §1

MDA-MB-468 [7] = assay: as above
Protocol: as §1

BT-549 [8] = assay: as above
Protocol: as §1

BT-474 [9] = assay: as above
Protocol: as §1

CAL-51 [10] = assay: as above
Protocol: as §1

MDA-MB-436 [11] = assay: as above
Protocol: as §1

MDA-MB-453 [12] = assay: as above
Protocol: as §1

CAL-85-1 [13] = assay: as above
Protocol: as §1

HDQ-P1 [14] = assay: as above
Protocol: as §1

HCC1937 [15] = assay: as above
Protocol: as §1

DU-4475 [16] = assay: as above
Protocol: as §1

HCC1599 [17] = assay: as above
Protocol: as §1

MCF-10A [18] = assay: normalised response (% of control), CellTox Green; higher = less cell death (100 = DMSO, 0 = benzethonium chloride kill control)
How it was run: (§2)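 Breast cancer cell lines (20 µl suspension) were seeded into 384-well plates holding compound at 5 concentrations in 10-fold steps over a compound-specific 10,000-fold range, then incubated 72 h. CellTox Green fluorescence (485/520 nm) was read first, then CellTiter-Glo luminescence after 10 min at room temperature. Each plate was normalised to 0.1 % DMSO (100) and a positive kill control (0). Each value is the normalised signal at a single concentration of the series.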

CAL-148 [19] = assay: as above
How it was run: as §2

MDA-MB-231 [20] = assay: as above
How it was run: as §2

CAL-120 [21] = assay: as above
How it was run: as §2

HCC1143 [22] = assay: as above
How it was run: as §2

MFM-223 [23] = assay: as above
How it was run: as §2

MDA-MB-468 [24] = assay: as above
How it was run: as §2

BT-549 [25] = assay: as above
How it was run: as §2

BT-474 [26] = assay: as above
How it was run: as §2

CAL-51 [27] = assay: as above
How it was run: as §2

MDA-MB-436 [28] = assay: as above
How it was run: as §2

MDA-MB-453 [29] = assay: as above
How it was run: as §2

CAL-85-1 [30] = assay: as above
How it was run: as §2

HDQ-P1 [31] = assay: as above
How it was run: as §2

HCC1937 [32] = assay: as above
How it was run: as §2

DU-4475 [33] = assay: as above
How it was run: as §2

HCC1599 [34] = assay: as above
How it was run: as §2

SMILES | normalised response (Hs578T) [%] | normalised response (MCF-10A [1]) [%] | normalised response (CAL-148 [2]) [%] | normalised response (MDA-MB-231 [3]) [%] | normalised response (SK-BR-3) [%] | normalised response (CAL-120 [4]) [%] | normalised response (HCC1143 [5]) [%] | normalised response (MFM-223 [6]) [%] | normalised response (MDA-MB-468 [7]) [%] | normalised response (BT-549 [8]) [%] | normalised response (BT-474 [9]) [%] | normalised response (CAL-51 [10]) [%] | normalised response (MDA-MB-436 [11]) [%] | normalised response (MDA-MB-453 [12]) [%] | normalised response (CAL-85-1 [13]) [%] | normalised response (HDQ-P1 [14]) [%] | normalised response (HCC1937 [15]) [%] | normalised response (DU-4475 [16]) [%] | normalised response (HCC1599 [17]) [%] | normalised response (MCF-10A [18]) [%] | normalised response (CAL-148 [19]) [%] | normalised response (MDA-MB-231 [20]) [%] | normalised response (CAL-120 [21]) [%] | normalised response (HCC1143 [22]) [%] | normalised response (MFM-223 [23]) [%] | normalised response (MDA-MB-468 [24]) [%] | normalised response (BT-549 [25]) [%] | normalised response (BT-474 [26]) [%] | normalised response (CAL-51 [27]) [%] | normalised response (MDA-MB-436 [28]) [%] | normalised response (MDA-MB-453 [29]) [%] | normalised response (CAL-85-1 [30]) [%] | normalised response (HDQ-P1 [31]) [%] | normalised response (HCC1937 [32]) [%] | normalised response (DU-4475 [33]) [%] | normalised response (HCC1599 [34]) [%]
CCn1c(C(=O)N(C2CC2)C2CC2)cc2c3c(ncn3C)c(Nc3cc(C)n(C)n3)nc21 (100 nM) | 110 | 106 | 103 | 99.7 | 105 | 95.7 | 101 | 99.8 | 97 | 110 | 100 | 87.7 | 106 | 93.2 | 100 | 98.3 | 97.4 | 99.2 | 93 | 77.7 | 103 | 106 | 90.4 | 98.8 | 94.8 | 83.1 | 106 | 101 | 101 | 93.9 | 99.3 | 108 | 102 | 57.1 | 101 | 96
CC1(C)CCC(c2ccc(Cl)cc2)=C(CN2CCN(c3ccc(C(=O)NS(=O)(=O)c4ccc(N[C@H](CCN5CCOCC5)CSc5ccccc5)c(S(=O)(=O)C(F)(F)F)c4)cc3)CC2)C1 [Navitoclax] (100 nM) | 93.6 | 91.4 | 88 | 91.4 | 88.5 | 87.2 | 95.6 | 96 | 83 | 96.7 | 88.1 | 104 | 91.9 | 87.7 | 89.7 | 96.8 | 87.9 | 92.9 | 94.5 | 79.6 | 100 | 73.8 | 92.1 | 92.1 | 103 | 104 | 96.6 | 99.4 | 94 | 72.7 | 92 | 93.6 | – | 67.1 | 96.2 | 101
COc1ccc(S(=O)(=O)Nc2cccnc2Nc2ccc(O)cc2)cc1 [ABT-751] (100 nM) | 107 | 96.6 | 96.6 | 101 | 93 | 95.2 | 99.3 | 101 | 97 | 100 | 99.2 | 88.9 | 98.5 | 84.2 | 96.9 | 96 | 92.5 | 99.6 | 109 | 57 | 104 | 102 | 94.7 | 69.5 | – | 81.9 | 95.4 | 92.9 | 98.6 | 83.8 | 98 | 92.2 | 101 | 110 | 97.4 | 101
CC(C)n1cnc2c(NCCc3ccc(O)cc3)nc(-c3csc4ccccc34)nc21 [StemRegenin 1] (100 nM) | 103 | 99.5 | 103 | 112 | 103 | 112 | 109 | 104 | 93.8 | 99.2 | 100 | 80.8 | 101 | 93.8 | 98.8 | 95.2 | 96.9 | 98.4 | 91 | 117 | 103 | 111 | 102 | 96.3 | 98.8 | 105 | 100 | 80 | 89.2 | 118 | 109 | 113 | 88.2 | 98.2 | 102 | 99.5
